Assay results: US5618795A, “Dibekacin derivatives and arbekacin derivatives active against resistant bacteria, and the production thereof” (Zaidan Hojin Biseibutsu Kagaku Kenkyu Kai, priority 1992, dated 1997)
≈ marks a conversion by molar mass, not a printed value. Where two headings read alike, the source gives them in different places.

Columns and labels:
[1] = P. J. L. Daniels et al.; cited from earlier work
[2] = tested on: clinically isolated strains of MRSA; assay: Antibacterial MIC spectra against 50 clinically isolated strains of MRSA; format: cell-based, methicillin-resistant Staphylococcus aureus; conditions: Staphylococcus aureus; for MIC50: 50% of the 50 MRSA strains inhibited, read-out: MIC50; for MIC: read-out: Antibacterial MIC spectra
Description: (§1) Minimum growth inhibitory concentrations (MIC) of each of 2"-amino-2"-deoxyarbekacin (Compound Ia), 2"-amino-5,2"-dideoxyarbekacin (Compound Ib), 2"-amino-2"-deoxydibekacin (Compound IIa) and 2"-amino-5,2"-dideoxydibekacin (Compound IIb) against various bacteria (20 strains) and against clinically isolated strains of MRSA (50 strains) were determined by standard serial dilution method on Muller-Hinton's agar medium (as estimated after cultivating at 27° C. for 18 hours), and the test results obtained are shown in TABLE 3 and TABLE 4, respectively.
Note:- MIC50 or MIC90 represents the concentration of tested
active compound at which 50% or 90% of the total numbers of the bacterial
strains tested were inhibited from their growth. DKB denotes dibekacin,
(§2) Minimum growth inhibitory concentrations (MIC) of each of 2"-amino-5,2"-dideoxy-5-epi-fluoroarbekacin (Compound XVIa) and 2"-amino-5,2"-dideoxy-5-epi-aminoarbekacin (Compound XVIb) against various bacteria (18 strains) and against clinically isolated strains of MRSA (50 strains) were determined by standard serial dilution method on Muller-Hinton's agar medium (as estimated after cultivation at 27° C. for 18 hours), and the test results obtained are shown in TABLE 5 and TABLE 6, respectively.

[3] = tested on: strain of MRSA which exhibits a moderate resistance to arbekacin; assay: Minimum growth inhibitory concentration against MRSA strain moderately resistant to arbekacin; format: cell-based, methicillin-resistant Staphylococcus aureus; conditions: Staphylococcus aureus, read-out: minimum growth inhibitory concentration of arbekacin
Bacillus subtilis PCI219 = assay: MIC by standard serial dilution method on Muller-Hinton's agar; format: cell-based; conditions: Table 3, 27° C., 18 hours
Description: as §1, §2

E. coli JR66/W677 = assay: as above; format: cell-based; conditions: Escherichia coli, JR66/W677, 18 h
Description: as §1, §2

E. coli K-12 LA290 R55 = assay: as above; format: cell-based; conditions: Escherichia coli, K12LA290R55, 18 h
Description: as §1, §2

E. coli K-12 ML1629 = assay: as above; format: cell-based; conditions: Escherichia coli, K12ML1629; Table 3; 27° C., 18 hours; read-out: MIC
Description: as §1, §2

Escherichia coli NIHJ = assay: as above; format: cell-based; conditions: Table 3, 27° C., 18 hours
Description: as §1, §2

[4] = tested on: Klebsiella pneumoniae PCI602; assay: as above; format: cell-based; conditions: PCI602, Table 3, 27° C., 18 hours, read-out: MIC
Description: as §1, §2

P. aeruginosa H9 = assay: as above; format: cell-based; conditions: Pseudomonas aeruginosa, H9; Table 3; 27° C., 18 hours; read-out: MIC
Description: as §1, §2

P. aeruginosa PST1 = assay: as above; format: cell-based; conditions: Pseudomonas aeruginosa, Table 3, 27° C., 18 hours
Description: as §1, §2

P. aeruginosa TI-13 = assay: as above; format: cell-based; conditions: Pseudomonas aeruginosa, TI13, 18 h
Description: as §1, §2

Proteus vulgaris OX19 = assay: as above; format: cell-based; conditions: OX19, Table 3, 27° C., 18 hours, read-out: MIC
Description: as §1, §2

[5] = tested on: Providencia rettgeri GN311; assay: as above; format: cell-based; conditions: GN311, Table 3, 27° C., 18 hours, read-out: MIC
Description: as §1, §2

[6] = tested on: Pseudomonas aeruginosa A3; assay: as above; format: cell-based; conditions: A3, Table 3, 27° C., 18 hours, read-out: MIC
Description: as §1, §2

S. aureus Smith = assay: as above; format: cell-based; conditions: Staphylococcus aureus; Table 3; 27° C., 18 hours
Description: as §1, §2

S. epidermidis 109 = assay: as above; format: cell-based; conditions: Staphylococcus epidermidis, 109; Table 3; 27° C., 18 hours; read-out: MIC
Description: as §1, §2

Salmonella typhi T-63 = assay: as above; format: cell-based; conditions: Salmonella enterica, Table 3, 27° C., 18 hours
Description: as §1, §2

Serratia marcescens = assay: as above; format: cell-based
Description: as §1, §2

[7] = tested on: Shigella dysenteriae JSI1910; assay: as above; format: cell-based; conditions: JSI1910, 18 h
Description: as §1, §2

[8] = tested on: Staphylococcus aureus FDA209P; assay: as above; format: cell-based; conditions: Table 3, 27° C., 18 hours
Description: as §1, §2

B. cereus ATCC10702 = assay: as above; format: cell-based; conditions: Bacillus cereus
Description: as §1

E. coli K-12 ML1410 = assay: as above; format: cell-based; conditions: Escherichia coli, K12ML1410; Table 3; 27° C., 18 hours
Description: as §1

[9] = Acute toxicity, single intravenous administration to mice; format: in vivo; conditions: mouse, in vivo
From the text: (§3) 50% Lethal dosages (LD50, observations for two weeks) of the new compounds of this invention as estimated upon single intravenous administration to mice (ICR-strain, 4 weeks old, female) are as follows:
(§4) 50% Lethal dosages (LD50, observations for two weeks) of the new compounds of general formula (XVI) according to the seventh aspect of this invention as estimated upon single intravenous administration to mice (ICR-strain, 4 weeks old, female) are as follows: […]

Solubility in water = format: physicochemical
mice = assay: Acute toxicity, single intravenous administration to mice; format: in vivo; conditions: mice / mammals
From the text: as §3, §4

[10] = tested on: gram-positive and gram-negative bacteria; assay: Antibacterial activities against gram-positive and gram-negative bacteria; format: cell-based
Description: as §1, §2

[11] = 90% of the 50 MRSA strains inhibited, 27° C., 18 hours, read-out: MIC90
[12] = range over 50 clinically isolated strains of MRSA, 27° C., 18 hours

| SMILES | antibacterial activity (in words) [1] | MIC50 ([2]; 27° C., 18 hours) [µg/mL] | MIC90 [2, 11] [µg/mL] | MIC [2, 12] [µg/mL] | MIC (Bacillus subtilis PCI219) [µg/mL] | MIC (E. coli JR66/W677) [µg/mL] | MIC (E. coli K-12 LA290 R55) [µg/mL] | MIC (E. coli K-12 ML1629) [µg/mL] | MIC (Escherichia coli NIHJ) [µg/mL] | MIC [4] [µg/mL] | MIC (P. aeruginosa H9) [µg/mL] | MIC (P. aeruginosa PST1) [µg/mL] | MIC (P. aeruginosa TI-13) [µg/mL] | MIC (Proteus vulgaris OX19) [µg/mL] | MIC [5] [µg/mL] | MIC [6] [µg/mL] | MIC (S. aureus Smith) [µg/mL] | MIC (S. epidermidis 109) [µg/mL] | MIC (Salmonella typhi T-63) [µg/mL] | MIC [7] [µg/mL] | also measured |
| --- | --- | --- | --- | --- | --- | --- | --- | --- | --- | --- | --- | --- | --- | --- | --- | --- | --- | --- | --- | --- | --- |
| CN[C@@H]1[C@@H](O)[C@@H](O[C@@H]2[C@H](N)[C@H](O[C@H]3OC(CN)=CC[C@H]3N)[C@@H](N)C[C@H]2N)OC[C@]1(C)O [5-epi-amino-5-deoxysisomicin] | good antibacterial activity |  |  |  |  |  |  |  |  |  |  |  |  |  |  |  |  |  |  |  |  |
| CN[C@@H]1[C@@H](O)[C@@H](O[C@@H]2[C@H](F)[C@H](O[C@H]3OC(CN)=CC[C@H]3N)[C@@H](N)C[C@H]2N)OC[C@]1(C)O [5-epi-fluoro-5-deoxysisomicin] | good antibacterial activity |  |  |  |  |  |  |  |  |  |  |  |  |  |  |  |  |  |  |  |  |
| NCC[C@H](O)C(=O)N[C@@H]1C[C@H](N)[C@@H](O[C@H]2O[C@H](CN)CC[C@H]2N)[C@H](O)[C@H]1O[C@H]1O[C@H](CO)[C@@H](O)[C@H](N)[C@H]1O [ABK, (S)-1-N-(4-amino2-hydroxybutyryl)dibekacin, reference compound] |  | 0.39 (≈ 0.706 µM) | 6.25 (≈ 11.3 µM) | 0.2 to 6.25 (≈ 0.362 to 11.3 µM) |  |  |  |  |  |  |  |  |  |  |  |  |  |  |  |  | MIC [3]: 6.25 to 12.5 µg/mL (≈ 11.3 to 22.6 µM) |
| NCC[C@H](O)C(=O)N[C@@H]1C[C@H](N)[C@@H](O[C@H]2O[C@H](CN)CC[C@H]2N)[C@H](O)[C@H]1O[C@H]1O[C@H](CO)[C@@H](O)[C@H](N)[C@H]1N [Compound Ia, 2"-Amino-2"-deoxyarbekacin] |  | 0.78 (≈ 1.41 µM) | 1.56 (≈ 2.83 µM) |  | 0.2 (≈ 0.363 µM) | 3.13 (≈ 5.67 µM) | 0.78 (≈ 1.41 µM) | 3.13 (≈ 5.67 µM) | 0.78 (≈ 1.41 µM) | 1.56 (≈ 2.83 µM) | 6.25 (≈ 11.3 µM) | 12.5 (≈ 22.7 µM) | 3.13 (≈ 5.67 µM) | 1.56 (≈ 2.83 µM) | 1.56 (≈ 2.83 µM) | 1.56 (≈ 2.83 µM) | ≤ 0.2 | 0.78 (≈ 1.41 µM) | 0.78 (≈ 1.41 µM) | 3.13 (≈ 5.67 µM) | MIC (Serratia marcescens; 18 h): 3.13 µg/mL (≈ 5.67 µM); MIC [8]: 0.39 µg/mL (≈ 0.707 µM); MIC (B. cereus ATCC10702; ATCC10702, 18 h): 3.13 µg/mL (≈ 5.67 µM); MIC (E. coli K-12 ML1410): 1.56 µg/mL (≈ 2.83 µM); MIC ([2]; MRSA, 18 h): 0.2 to 3.13 µg/mL (≈ 0.363 to 5.67 µM); LD50 at 336 h ([9]; single intravenous administration, mice (ICR-strain, 4 weeks old, female), observations for two weeks, read-out: LD50): > 100 mg/kg; Solubility (Solubility in water): easily soluble in water |
| NCC[C@H](O)C(=O)N[C@@H]1C[C@H](N)[C@@H](O[C@H]2O[C@H](CN)CC[C@H]2N)C[C@H]1O[C@H]1O[C@H](CO)[C@@H](O)[C@H](N)[C@H]1N [Compound Ib, 2"-Amino-5,2"-dideoxyarbekacin] |  | 0.78 (≈ 1.46 µM) |  | 0.2 to 3.13 (≈ 0.373 to 5.84 µM) | ≤ 0.2 | 3.13 (≈ 5.84 µM) | 0.78 (≈ 1.46 µM) | 1.56 (≈ 2.91 µM) | 0.39 (≈ 0.728 µM) | 0.78 (≈ 1.46 µM) | 3.13 (≈ 5.84 µM) | 6.25 (≈ 11.7 µM) | 1.56 (≈ 2.91 µM) | 0.78 (≈ 1.46 µM) | 0.78 (≈ 1.46 µM) | 0.39 (≈ 0.728 µM) | ≤ 0.2 | 0.39 (≈ 0.728 µM) | 0.78 (≈ 1.46 µM) | 1.56 (≈ 2.91 µM) | MIC (Serratia marcescens; Table 3, 27° C., 18 hours, read-out: MIC): 6.25 µg/mL (≈ 11.7 µM); MIC [8]: ≤ 0.2 µg/mL; MIC (B. cereus ATCC10702; ATCC10702, Table 3, 27° C., 18 hours, read-out: MIC): 0.78 µg/mL (≈ 1.46 µM); MIC (E. coli K-12 ML1410): 1.56 µg/mL (≈ 2.91 µM); MIC90 ([2]; MRSA, 18 h): 1.56 µg/mL (≈ 2.91 µM); LD50 at 336 h ([9]; iv): 50 to 100 mg/kg; acute toxicity (in words) (mice): higher acute toxicity to mice than that of 2"-amino-2"-deoxyarbekacin; Solubility (Solubility in water): easily soluble in water; antibacterial activity (in words) [10]: broad and excellent antibacterial activity |
